These results are taken from paper PMC11783601, “Analogue-Sensitive Inhibition of Histone Demethylases Uncovers Member-Specific Function in Ribosomal Protein Synthesis” (Journal of the American Chemical Society, 2025).

Data set [1] concerns HEK293T cells. Put plainly: Cell permeability and hydrolysis to 6, LC-HRMS of cell extracts. The format is in vitro ADME, human. The note with it: 200 µM, 24 hours, LC-HRMS total ion counts. An excerpt: (§1) We next examined the orthogonal pairs for their ability to modulate lysine demethylation on the chromosomal histone in cultured human cells (Figure 4A). To this end, we generated the F185A mutation in full-length KDM4A carrying all of the functional domains. Furthermore, to enhance cell permeability, we synthesized two chemoselective ester prodrugs 6A and 6B carrying either an n-octyl or a trifluoromethyl benzyl ester as the lipophilic moiety, respectively (Figures 4A, S5, and S6, Scheme S3).[46],[47] We confirmed the cell permeability of 6A and 6B and their subsequent hydrolysis to 6 by analyzing extracts of compound-treated HEK293T cells using LC-HRMS. […]
(§2) 12. Examining cell permeability and toxicity of 6A and 6B
In a T-25 cell culture flask, HEK293T cells were treated with either 200 µM L-Leu octyl-ester NOG 6A, L-Leu TFMB-ester NOG 6B, or corresponding volume of DMSO. Following 24 hours of incubation at 37 °C, media was removed and 3mL of 80:20 methanol: water was added while the flasks with cells were on dry ice. The flasks were then incubated in -80 °C for 10 minutes to allow cell lysis. […] Relative de-esterification was determined by subtracting abundance of each treatment sample by the DMSO control and indicated molecular weights followed by dividing the abundance of L-Leu NOG molecular weight by the total abundance of esterified and de-esterified L-Leu 6 for each sample. […]

Data set [2] deals with HEK293T cells. The data set can be described thus: MTT assay. The format is cell-based, human. The note with it: near millimolar concentrations (100 to 800 µM, 24 hours).
Description: as §1, §2
In a T-25 cell culture flask, HEK293T cells were treated with either 200 µM L-Leu octyl-ester NOG 6A, L-Leu TFMB-ester NOG 6B, or corresponding volume of DMSO. Following 24 hours of incubation at 37 °C, media was removed and 3mL of 80:20 methanol: water was added while the flasks with cells were on dry ice. The flasks were then incubated in -80 °C for 10 minutes to allow cell lysis. […]
To assess the toxicity of 6A/B on HEK 293-T cells (ATCC CRL-1573) were counted, and 5,000 cells were plated into a 96 well cell culture plate (Corning) for n=5 of each treatment. […] Absorbance at 570nm was quantified via TECAN Infinite […]

`CCCCCCCCOC(=O)C(=O)NC(CC(C)C)C(=O)O` [6A, L-Leu octyl-ester NOG]: the “membrane permeability and hydrolysis to 6” value in the data set on HEK293T cells [1] was “comparable membrane permeability”. For the same molecule, in the data set with HEK293T cells [2], the cytotoxicity entry was “marginal cytotoxicity”.
For `CC(C)CC(NC(=O)C(=O)OCc1cccc(C(F)(F)F)c1)C(=O)O` [6B, L-Leu TFMB-ester NOG], in that order: “comparable membrane permeability” and “marginal cytotoxicity”.
